The subject of assay [1] is human pathogen community. As to the kind of experiment: Mice with 30% hepatectomy and intestinal infection with human pathogen community, polymers in drinking water. Format: in vivo.
Text: (A) FIG. 10(A) provides data showing the extent of cell proliferation in cecal crypts of mice provided with drinking water lacking a phosphorylated PEG (PC 1-3, i.e., pathogen community, plates 1-3 wherein each plate contained 10 or 15 C. elegans worms exposed to pathogens), drinking water containing 3% PPi6 (hexametaphosphate) (PPi6 1-3 refers to plates 1-3 as described above, but exposed to pathogens from mice drinking 3% PPi6), or drinking water containing 1% ABA-PEG20k (ABA-PEG20k-P120 1-3, wherein 1-3 refers to plates 1-3 as described above exposed to pathogen from mice drinking 1% ABA-PEG20k). All groups are SAH+PC (starvation-positive, antibiotic-positive hepatectomy subjects exposed to the pathogen community), POD2 (data from post-operative day 2), and cell proliferation is measured by immunostaining for Ki67.
An experiment was conducted to assess the effects of phosphorylated polymers, i.e., PPi-6 and ABA-PEG20k-Pi20, delivered orally as drinking solutions to mice subjected to 30% hepatectomy and intestinal infection with the human pathogen community. More particularly, the mice were divided into the following groups. Group 1 contained starvation-positive, antibiotic-positive mice receiving no phosphorylated PEG but exposed to the pathogen community. Data from three groups of mice were analyzed. Absolute (FIG. 16A) and relative to crypt depth (FIG. 16B) Ki67 distributions were counted on 90 crypts cumulative of 3 mice in each group. Group 2 contained starvation-positive, antibiotic-positive mice receiving 3% PPi-6 and exposed to the pathogen community. Data from three mice were analyzed, totaling 109 crypts for Ki67 counts. Group 3 contained starvation-positive, antibiotic-positive mice receiving 1% ABA-PEG20k-Pi20 and exposed to the pathogen community. Data from three mice were analyzed, totaling 168 crypts for Ki67 counts.
Stem cell proliferation in cecal crypts, measured by immunostaining for the Ki67 marker, provides an accepted measure of crypt homeostasis.
In assay [2] the test system is Enterococcus faecalis collagenolytic strains (E2 and E27). As to the kind of experiment: Collagenase production of collagenolytic Enterococcus faecalis, overnight incubation. The settings on record: in vitro. Format: cell-based.
Assay [3] deals with Enterococcus faecalis. As to the kind of experiment: Growth of Enterococcus faecalis. Format: cell-based. Particulars: in vitro. The procedure: The inability of PPi-6 to suppress the collagenolytic activity of E. faecalis in vitro relates to its inability in vivo to improve anastomotic healing. […] The efficacy of this compound in vivo correlated to its ability to profoundly suppress collagenase activity in these strains […]. […] Actually, PPi-6 at concentrations of >2 mM even suppressed the E. faecalis growth.

Assay [4] deals with S. marcescens. Particulars: cited from earlier work.
In assay [5] the test system is P. aeruginosa. The settings on record: cited from earlier work.
In assay [6] the test system is S. marcescens. The settings on record: supplementation in the drinking water; cited from earlier work.
The test system of assay [7] is P. aeruginosa. Particulars: supplementation in the drinking water; cited from earlier work.
The subject of assay [8] is E. faecalis E2. Particulars: oral administration.
Experimental: Next, the compound was tested in a mouse model of E. faecalis-mediated anastomotic leak by providing 1% ABA-PEG20k-Pi20 in drinking water. At post-operative day (POD) 7, anastomotic healing was assessed and the total amount of E. faecalis present at the anastomotic site and the percentage of E. faecalis expressing the collagenolytic phenotype were determined.
Two groups of mice were involved in this study. All mice were subjected to colon anastomosis followed by an enema of E. faecalis E2 at POD1. The first group received water, and the second group received 1% ABA-PEG20k-Pi20 dissolved in water. At the time of sacrifice at POD7, the tissues and luminal contents were collected at the site of anastomosis, homogenized, and used for culturing. Total Enterococcus colonization at the anastomosis site and luminal content were determined by culture analysis using Enterococcal selective plates (BD Difco) on which all Enterococcus species produced black-pigmented colonies. The CFU count was normalized to the sample weight. […] The collagenolytic population was evaluated on Enterococcal plates covered with skim milk on which collagenolytic species produced black colonies with a clearing halo surrounding the colony.
Setting [9] is: 3% PPi6 or 1% polymer in drinking water, POD2, SAH+PC mice.

Entries after “also recorded” stand apart in the source; their conditions may differ.

Regarding `O=P1([O-])OP(=O)([O-])OP(=O)([O-])OP(=O)([O-])OP(=O)([O-])OP(=O)([O-])O1.[Na+].[Na+].[Na+].[Na+].[Na+].[Na+]` [PPi-6, Sodium hexametaphosphate], the “abnormal stem cell proliferation in cecal crypts” value in assay [1] (3% PPi6 or 1% ABA-PEG20k-Pi20 in drinking water) is recorded as “inhibit abnormal stem cell proliferation”. For the same molecule, in assay [1] (setting [9]), the “height of cell proliferation above cecal crypt base (Ki67)” value is listed as 31.04±1.288 m and the “height of proliferating cells relative to cecal crypt depth (Ki67)” value is recorded as 35.12±1.332 m. Further, the mortality rate in assay [1] (post-operative day 2, 3% PPi6 or 1% ABA-PEG20k-Pi20 in drinking water) is 0%. For the same molecule, in assay [2], the “collagenase production / collagenolytic activity of E. faecalis” value is on record as “only slightly attenuated collagenase production; also recorded: does not affect the collagenolytic activity”. Besides, in assay [3], the E. faecalis growth entry is on record as “does not promote a growth” and the “concentration that suppressed E. faecalis growth” value is on record as over 2 mM. In addition, in assay [4], the collagenase production entry was “profoundly suppresses the collagenase production”. Further, the collagenase production result in assay [5] is listed as “profoundly suppresses the collagenase production”. Besides, the “protection from colonic anastomosis leakage” value in assay [6] is recorded as “protects mice from colonic anastomosis leakage”. The “protection from colonic anastomosis leakage” value in assay [7] was “protects mice from colonic anastomosis leakage”. Moreover, the “anastomotic healing / protection in mouse model” value in assay [8] is “did not improve the anastomotic healing complications”.

The values above are taken from US11571443B2, “Phosphorylated tri-block copolymers with antimicrobial properties” (THE UNIVERSITY OF CHICAGO, priority 2016, dated 2023).
